Assays:
[1] = test system: HCC1806 triple-negative breast cancer cells; experiment: MTS cell viability assay (72 h); format: cell-based, human; details: Homo sapiens, HCC1806; 72 h incubation, MTS; read-out: IC50, cytotoxicity against HCC1806 cells
Protocol: HCC1806 cells were grown in RPMI 1640 medium, and MTS assays were performed to check cell viability. Cells (2500–3000 cells/well) were grown in flat-bottomed 96-well plates for 24 h, and then serial dilutions of the compound were added, and cells were allowed to incubate for a further 72 h. At the end of the 72-h incubation period, the medium was removed, and 100 μL of a solution including a mixture of MTS and PMS was added. The cells were incubated for 1.5 h at 37 °C in a humidified incubator with 5% CO2 to allow viable cells to convert tetrazolium salts to formazan. Conversion to formazan was measured by absorbance (490 nm) using a BioTek PowerWave-X absorbance microplate meter. The data collected were normalized using a DMSO-treated control (100% viability) and a background control (0% viability) to verify growth inhibition.

[2] = PS SPR binding assay (Biacore T200, L1 chip); details: DOPC/DOPS (3:1, v/v) liposomes on L1 chip, 25 °C
Protocol: Phospholipids, 1,2-dioleoyl-sn-glycero-3-phosphocholine (DOPC) and 1,2-dioleoyl-sn-glycero-3-[phosphate-L-serine] (DOPS) were obtained as chloroform solutions from Avanti Polar Lipids (Alabaster, AL, USA). These stock solutions were mixed in the specified proportions. A 0.4 mL aliquot of the lipid solution at a 10 mg/mL concentration was added to a round bottom flask and evaporated under a stream of N2 to provide a thin lipid film. The lipid films were rehydrated in PBS buffer for at least 1 h at room temperature. The resulting suspension was extruded through a 100 nm polycarbonate filter using an Avanti MiniExtruder according to the manufacturer’s instructions. Zeta potential (ZP) and liposome size distribution were recorded by dynamic light scattering (DLS) and microelectrophoresis using a Zetasizer Nano ZS instrument. The binding kinetics between conjugates and liposomes were recorded at 25 °C using a Biacore T200 biosensor equipped with an L1 sensor chip (GE Healthcare, Chicago, IL, USA). The new sensor chip was pretreated with running buffer (5% DMSO in phosphate buffered saline (PBS) at a pH of 7.4) and two consecutive 30 s pulses of 2:3 v/v 50 mM HCl/isopropanol at a flow rate of 30 μL/min. New liposome capture plates were prepared for each binding cycle. In PBS buffer, liposomes are diluted to 0.5–1 mM and captured to saturation in isolated flow cells at 2–5 μL/min (30–150 s). […]

[3] = test system: HCC1806 human triple-negative breast cancer tumors; experiment: HCC1806 xenograft tumor efficacy; format: in vivo, female nude mice; details: 0.3 mg/kg i.v. twice weekly for 2 weeks
Protocol: Cancer cells suspended in RPMI 1640 medium (11835-030, Thermo Fisher Scientific, Waltham, MA, USA) were mixed with Matrigel™ (356237, BD Biosciences, Franklin Lakes, NJ, USA) in a 1:1 ratio. Human triple-negative breast cancer HCC1806 (1 × 10^6 cells) cells were inoculated subcutaneously into the left flank of 6-week-old female nude mice (BioLASCO Taiwan, Taipei, Taiwan) using a 1 mL syringe with a 24G needle (AN-2425R, Terumo Medical Corp., Tokyo, Japan). Tumor dimensions were measured twice weekly using electronic calipers (FOW54-200-777, PRO-MAX), and the volume of tumor grown subcutaneously (mm^3) was calculated by the formula Volume = (length × width^2)/2. A combination of 10% DMA/20% Cremophor EL/70% 5% dextrose injection (D5W) was formulated to treat HCC1806 xenograft tumors. Mice with HCC1806 tumors were grouped and administered the indicated dosing regimen of 1 mg/kg for the conjugate and 0.3 mg/kg for the cytotoxic payloads DM1 and DM4 twice-weekly (day 1 and day 4) for 2 weeks when the mean tumor volume was approximately 200–250 mm^3 or 850–900 mm^3 (large tumors). The conjugate dose of 2 mg/kg was administered weekly for the large tumor study. The body weight and tumor volume of mice were measured twice weekly. In addition, a previously reported oncogene-induced, sorafenib-resistant HCC mouse model was used in the current study to examine the antitumor activities of synthesized compounds. Briefly, plasmids including transposase (pCMV(CAT)T7-SB100), human Akt1, and luciferase (pKT2/CLP-AKT-2A-OVA-HBc-HBs-LUC) and the N-Ras V12 mutant (pT/Caggs-NRASV12) were hydrodynamically injected (HDI) and the liver was monitored for the appearance of HCC. HCC mice with a total flux of more than 1 × 10^9 photons/s from IVIS imaging were used as treatment conjugates. The indicated conjugate was administered intravenously at 1 mg/kg 3 times per week over 2 weeks. IVIS imaging was repeatedly performed to follow tumor progression, and tumor tissue from treated HCC mice was collected for histological examination and RNA extraction after administration.

[4] = Plasma stability, 24 h incubation with plasma (HPLC); format: in vitro ADME
Protocol: Zn8_DM1: 0H VS. 24H in plasma.
Zn10_DM4: 0H VS. 24H in plasma.
Supporting Figure S1. Incubation of Linker-drug 3 and 4, conjugates Zn8_DM1 and
Zn10_DM4, DM1 and DM4 with plasma for 24 hrs. HPLC condition is listed below. […]

SMILES	IC50 [1] [nM]	association with PS-coated liposomes (SPR) [2]	anti-HCC1806 tumor growth activity of free payload [3]	cleavage of the maytansinoid after incubation with plasma [4]
COc1cc2cc(c1Cl)N(C)C(=O)C[C@H](OC(=O)[C@H](C)N(C)C(=O)CCS)[C@]1(C)O[C@H]1[C@H](C)[C@@H]1C[C@@](O)(NC(=O)O1)[C@H](OC)/C=C/C=C(\C)C2 [DM1, (14S,16S,32R,33S,2R,4S,10E,12E,14R)-86-chloro-14-hydroxy-85,14-dimethoxy-33,2,7,10-tetramethyl-12,6-dioxo-7-aza-1(6,4)-oxazinana-3(2,3)-oxirana-8(1,3)-benzenacyclotetradecaphane-10,12-dien-4-yl N-(3-mercaptopropanoyl)-N-methyl-D-alaninate, reference compound]	21	did not show association properties		
COc1cc2cc(c1Cl)N(C)C(=O)CC(OC(=O)C(C)N(C)C(=O)CCC(C)(C)S)C1(C)OC1C(C)C1CC(O)(NC(=O)O1)C(OC)C=CC=C(C)C2 [DM4, (14R,16R,33R,2S,4S,10E,12Z,14S)-86-chloro-14-hydroxy-85,14-dimethoxy-33,2,7,10-tetramethyl-12,6-dioxo-7-aza-1(6,4)-oxazinana-3(2,3)-oxirana-8(1,3)-benzenacyclotetradecaphane-10,12-dien-4-yl N-(4-mercapto-4-methylpentanoyl)-N-methyl-D-alaninate, reference compound]	7		marginal improvement in its antitumor activity	
COc1cc2cc(c1Cl)N(C)C(=O)C[C@H](OC(=O)[C@H](C)N(C)C(=O)CCSC(=O)c1ccc(CN(CCOCCOCCNC(=O)OC(C)(C)C)C(=O)C3(c4ccc(Cl)cc4)CCCCC3)cc1)[C@]1(C)O[C@H]1[C@H](C)[C@@H]1C[C@@](O)(NC(=O)O1)[C@H](OC)/C=C/C=C(\C)C2 [compound 3, (14R,16R,33R,2S,4S,10E,12Z,14S)-86-Chloro-14-hydroxy-85,14-dimethoxy-33,2,7,10-tetramethyl-12,6-dioxo-7-aza-1(6,4)-oxazinana-3(2,3)-oxirana-8(1,3)-benzenacyclotetradecaphane-10,12-dien-4-yl N-(3-((4-(2-(1-(4-chlorophenyl)cyclohexane-1-carbonyl)-14,14-dimethyl-12-oxo-5,8,13-trioxa-2,11-diazapentadecyl)benzoyl)thio)propanoyl)-N-methyl-L-alaninate]				No cleavage
COc1cc2cc(c1Cl)N(C)C(=O)CC(OC(=O)C(C)N(C)C(=O)CCC(C)(C)SC(=O)c1ccc(CN(CCOCCOCCNC(=O)OC(C)(C)C)C(=O)C3(c4ccc(Cl)cc4)CCCCC3)cc1)C1(C)OC1C(C)C1CC(O)(NC(=O)O1)C(OC)C=CC=C(C)C2 [compound 4, (14R,16R,33R,2S,4S,10E,12Z,14S)-86-Chloro-14-hydroxy-85,14-dimethoxy-33,2,7,10-tetramethyl-12,6-dioxo-7-aza-1(6,4)-oxazinana-3(2,3)-oxirana-8(1,3)-benzenacyclotetradecaphane-10,12-dien-4-yl N-(4-((4-(2-(1-(4-chlorophenyl)cyclohexane-1-carbonyl)-14,14-dimethyl-12-oxo-5,8,13-trioxa-2,11-diazapentadecyl)benzoyl)thio)-4-methylpentanoyl)-N-methyl-D-alaninate]				No cleavage
